The text below walks through data of patent US20160022718A1, “METHODS OF LOWERING BLOOD PRESSURE” (LEXICON PHARMACEUTICALS, INC., priority 2010, published 2016).

The data set has as its system patients with type 2 diabetes mellitus. Put plainly: randomized, double-blind, placebo controlled Phase 2a clinical trial, 28 days once daily oral dosing. As to conditions: for Change in Weight, change from baseline / Seated Diastolic BP, change from baseline / Seated Systolic BP, change from baseline / Serum Triglyceride, change from baseline: four-week treatment; for Change in Weight, change from baseline: placebo −2.2; for Seated Diastolic BP, change from baseline: placebo −2.9; for Seated Systolic BP, change from baseline: placebo −4.3; for Serum Triglyceride, change from baseline: placebo −20.2; for reduction of average percent HbA1c after four weeks of dosing: placebo 0.49; for reduction in fasting plasma glucose level at week four: placebo 15.1 mg/dl. It is filed as in vivo, human. The method, then:
Certain aspects of this invention may be understood with reference to the figures, which provide results obtained from a randomized, double-blind, placebo controlled Phase 2a clinical trial, wherein 150 mg and 300 mg doses of a compound of the invention were orally administered once daily to patients with type 2 diabetes mellitus.
This invention is based, in part, on findings—provided herein—obtained from a randomized, double-blind, placebo controlled Phase 2a clinical trial, wherein 150 mg/day and 300 mg/day doses of a dual SGLT1/2 inhibitor were administered to patients with type 2 diabetes mellitus. The dual SGLT1/2 inhibitor was (2S,3R,4R,5S,6R)-2-(4-chloro-3-(4-ethoxybenzyl)phenyl)-6-(methylthio)tetrahydro-2H-pyran-3,4,5-triol, which has the structure:
Patients (n=36) with type 2 diabetes mellitus received one of two oral doses of (2S,3R,4R,5S,6R)-2-(4-chloro-3-(4-ethoxybenzyl)phenyl)-6-(methylthio)tetrahydro-2H-pyran-3,4,5-triol, given as 150 mg or 300 mg once daily, or matching placebo, for 28 days.
In this study, patients on metformin were taken off of the drug 16 days prior to day 0, the day dosing first began.

Where [1] appears, read: both treatment groups (150 mg/day and 300 mg/day).

`CCOc1ccc(Cc2cc([C@@H]3O[C@H](SC)[C@@H](O)[C@H](O)[C@H]3O)ccc2Cl)cc1` [(2S,3R,4R,5S,6R)-2-(4-chloro-3-(4-ethoxybenzyl)phenyl)-6-(methylthio)tetrahydro-2H-pyran-3,4,5-triol]: where the note is “150 mg (n = 12)”, the “Change in Weight, change from baseline” value is reported as −3.4%; the “Seated Diastolic BP, change from baseline” value is −5.8 mmHg; the “Seated Systolic BP, change from baseline” value is on record as −10.3 mmHg; the “Serum Triglyceride, change from baseline” value was -66.6 mg/dL. For the same compound, the “reduction of average percent HbA1c after four weeks of dosing” value (150 mg dose group, p=0.036, baseline 8.22%) amounted to 1.15%. Also, the “reduction in fasting plasma glucose level at week four” value (150 mg dose group) stood at 53.4 mg/dL. In addition, the dose-limiting toxicities result (150 mg or 300 mg once daily, 28 days) was “no evidence of dose-limiting toxicities was observed”. Besides, under “150 mg or 300 mg once daily, 28 days, evenly distributed across all dose groups, including placebo”, the adverse events result is on record as “generally mild”. In addition, the “insulin sensitivity, homeostatic model assessment (HOMA) (FIG. 4)” value (150 mg/day and 300 mg/day groups vs placebo, day 27) is reported as “improved insulin sensitivity”. In addition, under “150 mg/day and 300 mg/day groups, after one day of treatment”, the “mean plasma glucose AUC (FIG. 3)” value was “statistically significant decreases”. Moreover, for the setting “300 mg (n = 12)”, the “Change in Weight, change from baseline” value was −3.7%; the “Seated Diastolic BP, change from baseline” value is recorded as −5.3 mmHg; the “Seated Systolic BP, change from baseline” value is −13.1 mmHg; the “Serum Triglyceride, change from baseline” value was -62.8 mg/dL. Besides, the “reduction of average percent HbA1c after four weeks of dosing” value (300 mg dose group, p=0.017, baseline 8.50%) is given as 1.25%. For the same compound, the “percentage of patients achieving fasting plasma glucose levels of <105 mg/dl at week four” value (300 mg dose group, p=0.037 vs placebo) came out at 42%. Also, where the note is “300 mg dose group”, the “reduction in fasting plasma glucose level at week four” value was 65.9 mg/dL. Further, the “share of patients with HbA1c levels reduced to less than or equal to 7%” value (both dose groups (150 mg and 300 mg), four weeks) is reported as “half”. Moreover, the “glucosuria over the 28-day dosing period compared to placebo” value (both dose levels (150 mg and 300 mg once daily, oral), preliminary data) was “significant and sustained glucosuria”. Also, under setting [1], the “glucose tolerance vs placebo group (FIG. 2)” value is “greater glucose tolerance”; the “mean arterial pressure, day 28 compared to baseline (FIG. 10)” value is “decreased”; the “post-prandial glucose levels compared to placebo (FIG. 5)” value was “rapid, statistically significant decrease”.
